PMC12193833, “Toxicity Assessment and Antifungal Potential of Copper(II) and Silver(I) Complexes with 1,10-Phenanthroline-5,6-dione Against Drug-Resistant Clinical Isolates of Cryptococcus gattii and Cryptococcus neoformans” (Journal of Fungi, 2025)
Like-named read-outs stand apart in the source and are kept apart here.

Assays:
[1] = tested on: Galleria mellonella larvae; assay: In vivo acute toxicity, single treatment; conditions: single inoculation; for Larval survival: 125–1000 µM, 10 µL/larva, 37 °C
Protocol: (§1) In this set of experiments, G. mellonella larvae weighing approximately 0.2–0.3 g and displaying clear, uniform coloration were used. The larvae were inoculated (10 µL/larva) using an insulin syringe (BD Ultra-Fine, Franklin Lakes, NJ, USA) at the last left proleg. […] We also assessed their coloration through visual analysis as an indicator of stress levels. Throughout the experiments, the larvae were maintained at 37 °C [19, 42]. Two distinct treatment protocols were designed to evaluate the effects of the test compounds on larval survivability, as detailed below.
For the acute toxicity analysis, the test compounds were administered to the larvae in a single inoculation at concentrations ranging from 1000 to 125 μM. Each group consisted of 10 larvae, while the control group received only sterile PBS with 4% DMSO. […] The SI was calculated using the following equation: SI = G. mellonella CC50/Cryptococcus MIC.

[2] = tested on: C. gattii clinical isolates; assay: MIC/MFC of test compounds, microdilution; type: cell-based, Cryptococcus gattii; conditions: for MIC: read-out: MIC
Text: (§2) Six clinical isolates belonging to the Cryptococcus genus were obtained from patients who attended the Instituto Nacional de Infectologia Evandro Chagas (INI), Fundação Oswaldo Cruz (FIOCRUZ), and were kindly provided by Dr. Rodrigo Almeida-Paes (INI-FIOCRUZ). To comply with ethical standards and institutional agreements between UFRJ and FIOCRUZ, patient data were not disclosed. In this sense, the C. neoformans isolates were designated CFP00213 (213), CFP00223 (223), and CFP00350 (350), while the C. gattii isolates were labeled CFP00023 (23), CFP00025 (25), and CFP00027 (27). Before each experiment, an aliquot of the culture was transferred from Sabouraud dextrose agar (2% glucose, 1% peptone, and 0.5% yeast extract) to RPMI 1640 medium (Sigma-Aldrich, St. Louis, MO, USA), pH 7.2, buffered with 0.165 M MOPS (Sigma-Aldrich, St. Louis, MO, USA). RPMI medium induces the expression of capsular polysaccharides, the primary virulence factor of Cryptococcus cells. The cultures were incubated at 37 °C for 48 h to promote cell proliferation, stimulate metabolic activation, and enhance capsular development. Yeast cell counts were determined using a Neubauer chamber.
(§3) Following MIC determination, the MFC was assessed by inoculating 10 µL from wells showing no visible fungal growth onto Sabouraud dextrose agar. […] To further support and strengthen the evidence of the anti-Cryptococcus activity of the Cu-phendione and Ag-phendione complexes, we additionally performed MIC/MFC assays using well-characterized standard reference strains: ATCC 28957, H99, T1444 (all C. neoformans), and R265 (C. gattii).

hamsters = tested on: hamsters; design: method as in doi:10.1016/j.ejmcr.2022.100093; conditions: 1 mg/kg five times per week for nine weeks; cited from earlier work
[3] = tested on: Galleria mellonella larvae; assay: In vivo chronic toxicity, multiple treatment; conditions: for Alterations in stress indicators (melanization, cocoon formation) / Chronic toxicity (larval survival monitored over seven days): 62.5 µM daily for five consecutive days; for Larval survival: daily inoculation 62.5 µM for up to five days
Protocol: as §1
For the chronic toxicity analysis, larvae were inoculated daily for five consecutive days with the test complexes (Cu-phendione or Ag-phendione) at a high concentration of 62.5 μM. Each group consisted of 10 larvae, while the control group received only sterile PBS with 4% DMSO.

mice = tested on: mice; design: method as in doi:10.1039/c2tx00010e; conditions: cited from earlier work; for Deaths, behavioral, dietary or body weight changes: 45 mg/kg daily for five days plus seven days observation; for AST and ALT activities vs control: 45 mg/kg daily for five days
[4] = tested on: C. neoformans clinical isolates; assay: MIC/MFC of test compounds, microdilution; type: cell-based, Cryptococcus neoformans; conditions: for MIC: read-out: MIC
Text: as §2, §3

[5] = tested on: C. neoformans reference strains (ATCC 28957, H99, T1444); assay: MIC of complexes against reference strains; type: cell-based, Cryptococcus neoformans
Text: (§4) To further support and strengthen the evidence of the anti-Cryptococcus activity of the Cu-phendione and Ag-phendione complexes, we additionally performed MIC/MFC assays using well-characterized standard reference strains: ATCC 28957, […], […] (all C. neoformans), and […]).

[6] = tested on: C. neoformans or C. gattii; assay: Stability of antifungal activity (MIC repeated every six months over two years); type: cell-based, Cryptococcus neoformans and Cryptococcus gattii; conditions: same DMSO solution, room temperature, protected from light, MIC every six months for 730 days
Text: To evaluate the stability of the antifungal activity of the test complexes, the MIC assay was repeated every six months over a two-year period using the same Ag-phendione or Cu-phendione solution. The solutions were stored at room temperature and protected from light to maintain their chemical integrity.

[7] = tested on: hemocytes of G. mellonella larvae; type: in vivo, Galleria mellonella; conditions: 24 h
Protocol: The hemocyte density in the hemolymph of larvae inoculated with both complexes was assessed to evaluate potential immunological changes in G. mellonella. […] To analyze hemocyte density, a ventral caudal incision was made between the last prolegs of each larva using a surgical scalpel, and 10 μL of hemolymph was collected. The hemolymph was then diluted 1:100 in 990 μL of an anticoagulant buffer solution (98 mM NaOH, 186 mM NaCl, 17 mM EDTA, and 41 mM citric acid, pH 4.5). The number of hemocytes in each dilution was subsequently counted using a Neubauer chamber (Thermo Fisher Scientific, Waltham, MA USA).

Sheep erythrocytes = tested on: Sheep erythrocytes
Protocol: To evaluate the hemolytic activity of the test compounds, the microdilution method was performed in PBS using 96-well cell culture plates, as described by Evans et al.. PBS containing the test compounds (phendione, Cu-phendione, and Ag-phendione) at varying concentrations (1.9–62.5 µM) was added to the wells. Sheep erythrocytes (Cultilab, Rio de Janeiro, RJ, Brazil) were diluted in PBS to a final concentration of 2% (approximately 2 × 10^8 erythrocytes) and added to each well. The final volume of each well was 200 μL. A negative control (PBS and blood) and a positive control (PBS, blood, and 1% Triton X-100) were also included. The plates were incubated at 37 °C for 24 h, then centrifuged at 500× g for 10 min at 4 °C. Following centrifugation, 100 μL of the supernatant from each well was transferred to a new 96-well microplate, and absorbance was measured using a microplate reader ([…] SkyHigh; Thermo Scientific, Waltham, MA, USA) at 415 nm. […] The average absorbance of the positive control was set as 100% hemolysis, and the percentage hemolysis of the other groups was calculated accordingly. The selectivity index (SI) was determined using the following equation: SI = erythrocyte CC50/Cryptococcus MIC.

[8] = tested on: C. gattii reference strain R265; assay: MIC of complexes against reference strain; type: cell-based, Cryptococcus gattii
Text: as §4

[9] = all C. gattii clinical isolates
[10] = all C. neoformans clinical isolates

Row | SMILES | Changes in melanization or silk/cocoon production [1] | Larval survival [1] | MFC ([2]; C. gattii isolate 23) | MIC ([2]; C. gattii isolate 23) | MFC ([2]; C. gattii isolate 25) | MIC ([2]; C. gattii isolate 25) | MFC ([2]; C. gattii isolate 27) | MIC ([2]; C. gattii isolate 27) | MFC [2, 9] | MIC [2, 9] | Deaths, changes in behavior, diet or body weight (hamsters) | Urea, creatinine, AST, ALT and alkaline phosphatase levels vs control (hamsters) | Alterations in stress indicators (melanization, cocoon formation) [3] | Chronic toxicity (larval survival monitored over seven days) [3] | Larval survival [3] | Deaths, behavioral, dietary or body weight changes (mice) | AST and ALT activities vs control (mice) | Acute toxicity: highest dose with 100% tolerance (mice) | MFC ([4]; C. neoformans isolate 213) | MIC ([4]; C. neoformans isolate 213) | other results
1 | O.O.O.O.O=C1C(=O)c2cccnc2-c2ncccc21.O=C1C(=O)c2cccnc2-c2ncccc21.O=C1C(=O)c2cccnc2-c2ncccc21.[Cu+2].[O-][Cl+3]([O-])([O-])[O-].[O-][Cl+3]([O-])([O-])[O-] [Cu-phendione, [Cu(phendione)3](ClO4)2·4H2O] | no visible changes in melanization or silk/cocoon production | 100% | 12.5 µM | 6.25 µM | 12.5 µM | 6.25 µM | 12.5 µM | 6.25 µM | 12.5 µM | 6.25 µM | no deaths or changes in behavior, diet, or body weight | no differences | no alterations | non-toxic | 100% | no deaths or behavioral, dietary, or body weight changes | No significant differences | 45 mg/kg | 50 µM | 3.125 µM | CC50 ([1]; assumed, read-out: CC50 (G. mellonella larvae)): > 1000 µM; MFC ([4]; C. neoformans isolate 223): 50 µM; MIC ([4]; C. neoformans isolate 223): 3.125 µM; MFC ([4]; C. neoformans isolate 350): 50 µM; MIC ([4]; C. neoformans isolate 350): 3.125 µM; MFC [4, 10]: 50 µM; MIC [4, 10]: 3.125 µM; MIC ([5]; C. neoformans ATCC 28957): 1.56 µM; MIC ([5]; C. neoformans H99): 0.78 µM; MIC ([5]; C. neoformans T1444): 0.78 µM; Stability of antifungal activity (MIC variation) [6]: No variation in MIC values; Hemocyte density vs PBS control ([7]; single inoculation 15.625 µM): significant increase in hemocyte density; Hemocyte density vs PBS control ([7]; single inoculation 31.25 µM): significant increase in hemocyte density; Hemocyte density vs PBS control ([7]; single inoculation, other tested concentrations): No notable changes in hemocyte levels; CC50 (Sheep erythrocytes): > 62.5 µM; MIC [8]: 0.19 µM
2 | O=C1C(=O)c2cccnc2-c2ncccc21.O=C1C(=O)c2cccnc2-c2ncccc21.[Ag+].[O-][Cl+3]([O-])([O-])[O-] [Ag-phendione, [Ag(phendione)2]ClO4] | no visible changes in melanization or silk/cocoon production | 100% | 12.5 µM | 1.56 µM | 12.5 µM | 1.56 µM | 12.5 µM | 1.56 µM | 12.5 µM | 1.56 µM | no deaths or changes in behavior, diet, or body weight | no differences | no alterations | non-toxic | 100% | no deaths or behavioral, dietary, or body weight changes | No significant differences | 150 mg/kg | 25 µM | 1.56 µM | MFC ([4]; C. neoformans isolate 223): 25 µM; MIC ([4]; C. neoformans isolate 223): 1.56 µM; MFC ([4]; C. neoformans isolate 350): 25 µM; MIC ([4]; C. neoformans isolate 350): 1.56 µM; MFC [4, 10]: 25 µM; MIC [4, 10]: 1.56 µM; MIC ([5]; C. neoformans ATCC 28957): 0.19 µM; MIC ([5]; C. neoformans H99): 0.78 µM; MIC ([5]; C. neoformans T1444): 0.78 µM; Stability of antifungal activity (MIC variation) [6]: No variation in MIC values; Hemocyte density vs PBS control ([7]; single inoculation, any concentration tested (15.6–1000 µM)): did not significantly affect hemocyte density; MIC [8]: 0.19 µM
